Test results reported in ChEMBL document CHEMBL1127767, “Synthesis of 19-hydroxy docetaxel from a novel baccatin” (Bioorg Med Chem Lett, 1994).
In brackets after ≈: the same amount, converted by molar mass.

Key:
[1] = Inhibitory activity towards microtubule disassembly relative to paclitaxel evaluated as ID50 compound/ID50 paclitaxel; type: functional
P388 = experiment: Cytotoxicity against P388 leukemia cells was calculated; type: functional, cell-based; conditions: Mus musculus

CC(=O)O[C@@]12CO[C@@H]1C[C@H](O)[C@@]1(C)C(=O)[C@H](O)C3=C(C)[C@@H](OC(=O)[C@H](O)[C@@H](NC(=O)OC(C)(C)C)c4ccccc4)C[C@@](O)([C@@H](OC(=O)c4ccccc4)[C@H]21)C3(C)C
ID50 ratio [1]: 0.6

CC(=O)O[C@@]12CO[C@@H]1C[C@H](O)[C@@]1(CO)C(=O)[C@H](O)C3=C(C)[C@@H](OC(=O)[C@H](O)[C@@H](NC(=O)OC(C)(C)C)c4ccccc4)C[C@@](O)([C@@H](OC(=O)c4ccccc4)[C@H]21)C3(C)C
IC50 (P388): 0.07 µg/mL (≈ 0.085 µM) | ID50 ratio [1]: 0.4
